Results published in patent publication US20090061006A1, “Layered Nanoparticles for Sustained Release of Small Molecules” (priority 2006, published 2009).
Where two headings read alike, the source gives them in different places. Where a SMILES comes first, the peptide text is derived from it. [ ]: non-standard residue; d: D form. dPhe(4-Cl) = N[C@H](Cc1ccc(Cl)cc1)C(=O)O; d2Nal = N[C@H](Cc1ccc2ccccc2c1)C(=O)O; dCit = NC(=O)NCCC[C@@H](N)C(=O)O; d3Pal = N[C@H](Cc1cccnc1)C(=O)O

How the values were obtained:
[1] = cited from earlier work
[2] = tested on: human ovarian cancer cell lines; details: cited from earlier work
[3] = tested on: human endometrial cancer cell lines; details: cited from earlier work
[4] = tested on: MDA-MB-435S human breast cancer cells; assay: Cytotoxicity study, thiazolyl Blue (MTT) cell viability; type: cell-based; details: 9 hours incubation
Description: MDA-MB-435S cells were seeded into 12 well plates and grown in culture media containing Leibovitz's L-15 medium, 10% fetal bovine serum, 0.01 mg/mL bovine insulin, 100 IU/mL penicillin, and 100 μg/mL streptomycin. The cells were kept in tightly closed flasks at 37° C. in an incubator and grown to 70% confluence. Treatments with free Phor21-βCG(ala) were conducted at concentrations of 5, 20, and 100 μM. Treatments with silica-peptide nanoshells were conducted at corresponding amounts, equivalent to total Phor21-βCG(ala) concentrations of 5, 20, and 100 μM. On a separate plate silica nanoshells without peptide (15 mg/mL culture medium) were added to MDA-MB-435S cell cultures to determine their effect on cell viability. In all incubations, added saline was used as a control. Total incubation time was 9 hours at 37° C. Cell viability was measured in a thiazolyl Blue assay using [3-(4,5)-Dimethylthiazol-2-yl]-2,5 Diphenyltetrazolium Bromide—MTT. Cleavage of the tetrazolium ring by active mitochondria was used as a measure of the number of living cells. Statistical significance was determined using analysis of variance (ANOVA) and a two-tailed Student's t-test. Differences were considered significant at p<0.05.

[5] = in vivo
breast cancer xenograft = details: intravenously injected, cited from earlier work
[6] = cited from earlier work; remark: listed apart in the source
cancer cells = assay: Potency in destroying cancer cells; type: cell-based

Molecule: luteinizing hormone releasing hormone [LHRH]
- half-life in vivo [1]: ~20 min

Molecule: CC(C)C[C@H](NC(=O)[C@@H](Cc1c[nH]c2ccccc12)NC(=O)[C@H](Cc1ccc(O)cc1)NC(=O)[C@H](CO)NC(=O)[C@H](Cc1c[nH]c2ccccc12)NC(=O)[C@H](Cc1c[nH]cn1)NC(=O)[C@@H]1CCC(=O)N1)C(=O)N[C@@H](CCCNC(=N)N)C(=O)N1CCC[C@H]1C(=O)NCC(N)=O [triptorelin]
- in vitro proliferation [2]: inhibited
- in vitro proliferation [3]: inhibited

Molecule: Phor21-βCG(ala): 35-residue conjugate peptide KFAKFAKKFAKFAKKFAKFAK-SYAVASAQAALAAR (SEQ ID NO. 1): lytic peptide Phor21 plus gonadotropin analog ligand βCG(ala) (KFAKFAKKFAKFAKKFAKFAKSYAVASAQAALAAR; Phor21-beta-CG(ala) Peptide)
- activity at 100 micromolar versus 20 micromolar [4]: significantly lower activity
- toxicity against breast cancer cells ([4]; free peptide, 5, 20 and 100 μM, N=6): destroyed
- time after which free peptide is almost completely destroyed in circulation [5]: about three
- cell death in treated tumors (breast cancer xenograft; 8 mg/kg body weight, p<0.01): lower
- cell death in treated tumors (breast cancer xenograft; 0.2 and 2 mg/kg body weight, p<0.05): significantly higher

Molecule: C[C@@H]1C[C@H]2[C@@H]3CCC4=CC(=O)C=C[C@]4(C)[C@@]3(F)[C@@H](O)C[C@]2(C)[C@@]1(O)C(=O)CO [Dexamethasone]
- solubility in water [6]: insoluble

Molecule: Phor21: membrane-disrupting lytic peptide, residues 1-21 of SEQ ID NO. 1 (KFAKFAKKFAKFAKKFAKFAK; Phor21-beta-CG(ala) Peptide)
- potency in destroying cancer cells versus Hecate or Phor14 (cancer cells): more potent

Molecule: CC(=O)N[C@H](Cc1ccc2ccccc2c1)C(=O)N[C@H](Cc1ccc(Cl)cc1)C(=O)N[C@H](Cc1cccnc1)C(=O)N[C@@H](CO)C(=O)N[C@@H](Cc1ccc(O)cc1)C(=O)N[C@H](CCCNC(N)=O)C(=O)N[C@@H](CC(C)C)C(=O)N[C@@H](CCCNC(=N)N)C(=O)N1CCC[C@H]1C(=O)N[C@H](C)C(N)=O [Cetrorelix] (Ac-[d2Nal][dPhe(4-Cl)][d3Pal]SY[dCit]LRP[dA]-NH2)
- in vitro proliferation [2]: inhibited
- in vitro proliferation [3]: inhibited
